Counter-ions that a name gives are not always drawn.
Target: T1, JAK3 (Homo sapiens, UniProt P52333)
T1 construct: The Ramos B-cell line was acquired from ATCC (ATCC Catalog No. CRL-1596); host or cells: Ramos B-cell line (human)
T1 sequence (P52333 1-1124): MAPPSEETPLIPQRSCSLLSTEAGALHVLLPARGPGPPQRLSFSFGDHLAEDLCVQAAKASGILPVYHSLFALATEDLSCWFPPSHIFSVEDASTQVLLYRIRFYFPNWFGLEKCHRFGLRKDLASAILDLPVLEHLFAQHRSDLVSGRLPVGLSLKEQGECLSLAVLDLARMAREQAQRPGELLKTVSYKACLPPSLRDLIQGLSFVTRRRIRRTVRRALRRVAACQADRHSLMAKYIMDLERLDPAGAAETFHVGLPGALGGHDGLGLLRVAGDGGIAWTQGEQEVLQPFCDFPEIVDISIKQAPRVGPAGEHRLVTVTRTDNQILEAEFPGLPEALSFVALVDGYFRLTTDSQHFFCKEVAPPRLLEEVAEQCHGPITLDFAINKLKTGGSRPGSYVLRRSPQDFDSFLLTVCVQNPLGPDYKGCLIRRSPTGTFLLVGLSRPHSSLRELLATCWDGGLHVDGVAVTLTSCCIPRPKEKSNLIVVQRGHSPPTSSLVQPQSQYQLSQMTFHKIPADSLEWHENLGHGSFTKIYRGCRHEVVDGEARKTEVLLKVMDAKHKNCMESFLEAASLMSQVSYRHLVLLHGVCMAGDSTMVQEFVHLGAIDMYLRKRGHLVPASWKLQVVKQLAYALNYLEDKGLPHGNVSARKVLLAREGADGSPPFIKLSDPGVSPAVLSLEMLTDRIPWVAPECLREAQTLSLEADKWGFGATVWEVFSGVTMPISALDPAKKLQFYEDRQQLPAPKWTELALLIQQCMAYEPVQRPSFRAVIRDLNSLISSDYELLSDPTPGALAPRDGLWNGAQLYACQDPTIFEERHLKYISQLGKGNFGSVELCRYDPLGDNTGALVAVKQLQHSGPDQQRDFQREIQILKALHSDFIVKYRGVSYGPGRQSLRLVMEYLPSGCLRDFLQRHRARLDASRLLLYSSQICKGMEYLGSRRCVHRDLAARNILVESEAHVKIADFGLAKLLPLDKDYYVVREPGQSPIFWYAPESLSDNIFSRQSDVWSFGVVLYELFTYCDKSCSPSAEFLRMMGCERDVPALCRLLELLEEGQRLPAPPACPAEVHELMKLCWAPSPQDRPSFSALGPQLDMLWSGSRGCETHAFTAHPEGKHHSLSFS
Test: Assay for CD23 expression on Ramos B-cells stimulated by IL-4 (Table IV: ability to inhibit JAK3 activity)
Assay type: cell-based
Conditions: tested under conditions described in Example 3 (so in the source)
Excerpt: One means of assaying for such inhibition is detection of the effect of the 2,4-pyrimidinediamine compounds on the upregulation of downstream gene products. In the Ramos/IL4 assay, B-cells are stimulated with the cytokine Interleukin-4 (IL-4) leading to the activation of the JAK/Stat pathway through phosphorylation of the JAK family kinases, JAK1 and JAK3, which in turn phosphorylate and activate the transcription factor Stat-6. […] To study the effect of inhibitors (for example, the 2,4-substituted pyrimindinediamine compounds described herein) on the JAK1 and JAK3 kinases, human Ramos B cells are stimulated with human IL-4. 20 to 24 hours post stimulation, cells are stained for upregulation of CD23 and analyzed using FACS.
B-cells stimulated with cytokine Interleukin-4 (IL-4) activate the JAK/Stat pathway through phosphorylation of the JAK family kinases, JAK-1 and JAK-3, which in turn phosphorylate and activate the transcription factor Stat-6. […] To study the effect of inhibitors on the JAK family kinases, human Ramos B cells were stimulated with human IL-4 and the surface expression of CD23 was measured.
The day before the experiment, Ramos B-cells were diluted to 3.5×10^5 cells/mL to ensure that they were in a logarithmic growth phase.
Cells were spun down and suspended in RPMI with 5% serum. 5×10^4 cells were used per point in a 96-well tissue culture plate. Cells were pre-incubated with compound or DMSO (Sigma-Aldrich, St. Louis, Mo., Cat No. D2650) vehicle control for 1 hour in a 37° C. incubator. Cells were then stimulated with IL-4 (Peprotech Inc., Rocky Hill, N.J., Cat No. 200-04) for a final concentration of 50 units/mL for 20-24 hours. […] Detection was performed using a BD LSR I System Flow Cytometer, purchased from Becton Dickinson Biosciences of San Jose, Calif.
The compound designations in Table IV are consistent with those of Tables I-II above.

Structure (SMILES) | IC50
[2H]C([2H])([2H])Oc1cc(C)cc(Nc2ncc(F)c(Nc3ccc4oc(=O)[nH]c4c3)n2)c1 [Compound I-175, 5-(5-fluoro-2-(3-d3-methoxy-5-methylphenylamino)pyrimidin-4-ylamino)benzo[d]oxazol-2(3H)-one trifluoroacetate salt] | < 0.5 µM
Cc1cnc(Nc2cc(C)c(C(=O)OCc3ccccc3)c(C)c2)nc1Nc1ccc2oc(=O)[nH]c2c1 [Compound I-141, N2-(4-benzyloxycarbonyl-3,5-dimethyl)phenyl-5-methyl-N4-(2-oxo-2,3-dihydro-1,3-benzoxazol-5-yl)-2,4-pyrimidinediamine] | < 0.5 µM
Cc1ccc(Nc2ncc([N+](=O)[O-])c(Nc3ccc4oc(=O)[nH]c4c3)n2)cc1N(C)C [Compound I-45, 5-(2-(3-(dimethylamino)-4-methylphenylamino)-5-nitropyrimidin-4-ylamino)benzo[d]oxazol-2(3H)-one trifluoroacetate salt] | > 10 µM
Cc1cnc(Nc2cc(C)c(F)c(C(=O)O)c2)nc1Nc1ccc2oc(=O)[nH]c2c1 [Compound I-155, N2-(3-carboxy-4-fluoro-5-methyl)phenyl-5-methyl-N4-(2-oxo-2,3-dihydro-1,3-benzoxazol-5-yl)-2,4-pyrimidinediamine] | 0.5 to 5 µM
O=c1[nH]c2cc(Nc3nc(Nc4cc(F)cc(Cl)c4)ncc3Cl)ccc2o1 [Compound I-8, 5-(5-chloro-2-(3-chloro-5-fluorophenylamino)pyrimidin-4-ylamino)benzo[d]oxazol-2(3H)-one formate salt] | < 0.5 µM
Cc1cnc(Nc2cc(C)c(C#N)c(C)c2)nc1Nc1ccc2oc(=O)[nH]c2c1 [Compound I-64, 2,6-Dimethyl-4-[5-methyl-4-(2-oxo-2,3-dihydro-benzooxazol-5-ylamino)-pyrimidin-2-ylamino]-benzonitrile trifluoroacetate salt] | < 0.5 µM
COCCOc1c(C)ccc(Nc2ncc(C)c(Nc3ccc4oc(=O)[nH]c4c3)n2)c1F [Compound I-53, 5-{2-[2-Fluoro-3-(2-methoxy-ethoxy)-4-methyl-phenylamino]-5-methyl-pyrimidin-4-ylamino}-3H-benzooxazol-2-one] | < 0.5 µM
COc1cc(Nc2ncc(C)c(Nc3ccc4oc(=O)n(C)c4c3)n2)cc(C)c1C [Compound I-125, 5-(2-(3-methoxy-4,5-dimethylphenylamino)-5-methylpyrimidin-4-ylamino)-3-methylbenzo[d]oxazol-2(3H)-one trifluoroacetate salt] | < 0.5 µM
Cc1cc(Nc2ncc(CN3CCN(C)CC3)c(Nc3ccc4oc(=O)[nH]c4c3)n2)cc(C)c1C [Compound I-100, 5-(2-(3,4,5-trimethylphenylamino)-5-((4-methylpiperazin-1-yl)methyl)pyrimidin-4-ylamino)benzo[d]oxazol-2(3H)-one] | 0.5 to 5 µM
O=c1[nH]c2cc(Nc3nc(Nc4cccc(C(O)C(F)(F)F)c4)ncc3F)ccc2o1 (centres unmarked) [Compound I-210, 5-fluoro-N2-[3-(1-hydroxy-2,2,2-trifluoroethyl)]phenyl-N4-(2-oxo-2,3-dihydro-1,3-benzoxazol-5-yl)-2,4-pyrimidinediamine] | < 0.5 µM
Cc1ccc(Nc2ncc(Cl)c(Nc3ccc4oc(=O)[nH]c4c3)n2)cc1C [Compound I-5, 5-(5-chloro-2-(3,4-dimethylphenylamino)pyrimidin-4-ylamino)benzo[d]oxazol-2(3H)-one trifluoroacetate salt] | < 0.5 µM
Cc1cnc(Nc2cc(C)c(F)c(CO)c2)nc1Nc1ccc2oc(=O)[nH]c2c1 [Compound I-154, N2-(4-fluoro-3-hydroxymethyl-5-methyl)phenyl-5-methyl-N4-(2-oxo-2,3-dihydro-1,3-benzoxazol-5-yl)-2,4-pyrimidinediamine] | < 0.5 µM
Cc1cc(Nc2ncc(Cl)c(Nc3ccc4oc(=O)[nH]c4c3)n2)cc(N(C)C)c1C [Compound I-83, 5-(5-chloro-2-(3-(dimethylamino)-4,5-dimethylphenylamino)pyrimidin-4-ylamino)benzo[d]oxazol-2(3H)-one trifluoroacetate salt] | < 0.5 µM
Cc1cc(Nc2ncc(Cl)c(Nc3ccc4oc(=O)[nH]c4c3)n2)cc(C)c1C#N [Compound I-69, 4-(5-chloro-4-(2-oxo-2,3-dihydrobenzo[d]oxazol-5-ylamino)pyrimidin-2-ylamino)-2,6-dimethylbenzonitrile] trifluoroacetate salt] | < 0.5 µM
COc1cc(C)cc(Nc2ncc(F)c(Nc3cc(C)c4oc(=O)[nH]c4c3)n2)c1 [Compound I-177, 5-(2-(3-methoxy-5-methylphenylamino)-5-fluoropyrimidin-4-ylamino)-7-methylbenzo[d]oxazol-2(3H)-one trifluoroacetate salt] | > 10 µM
COCCOc1c(C)ccc(Nc2ncc(F)c(Nc3ccc4oc(=O)[nH]c4c3)n2)c1F [Compound I-61, 5-(5-fluoro-2-(2-fluoro-3-(2-methoxyethoxy)-4-methylphenylamino)pyrimidin-4-ylamino)benzo[d]oxazol-2(3H)-one trifluoroacetate salt] | < 0.5 µM
Cc1cnc(Nc2cc(C)c(C(=O)O)c(C)c2)nc1Nc1ccc2oc(=O)[nH]c2c1 [Compound I-140, N2-(4-carboxy-3,5-dimethyl)phenyl-5-methyl-N4-(2-oxo-2,3-dihydro-1,3-benzoxazol-5-yl)-2,4-pyrimidinediamine] | 0.5 to 5 µM
COc1c(C)ccc(Nc2ncc(Cl)c(Nc3ccc4oc(=O)[nH]c4c3)n2)c1F [Compound I-67, 5-(5-chloro-2-(2-fluoro-3-methoxy-4-methylphenylamino)pyrimidin-4-ylamino)benzo[d]oxazol-2(3H)-one] | < 0.5 µM
CN1CCN(c2cc(F)cc(Nc3ncc(F)c(Nc4ccc5oc(=O)[nH]c5c4)n3)c2)CC1 [Compound I-170, 5-(2-(3-fluoro-5-(4-methylpiperazin-1-yl)phenylamino)-5-fluoropyrimidin-4-ylamino)benzo[d]oxazol-2(3H)-one ditrifluoroacetate salt] | < 0.5 µM
COc1c(Br)ccc(Nc2ncc(C)c(Nc3ccc4oc(=O)[nH]c4c3)n2)c1F [Compound I-27, 5-[2-(4-Bromo-2-fluoro-3-methoxy-phenylamino)-5-methyl-pyrimidin-4-ylamino]-3H-benzooxazol-2-one] | < 0.5 µM
Cc1cnc(Nc2ccc3c(c2)COC3)nc1Nc1ccc2oc(=O)[nH]c2c1 [II-9, N2-(1,3-dihydro-isobenzofuran-5-yl)-5-methyl-N4-(2-oxo-2,3-dihydro-1,3-benzoxazol-5-yl)-2,4-pyrimidinediamine] | < 0.5 µM
O=C(Nc1ccccc1)c1ccc(Nc2ncc(F)c(Nc3ccc4oc(=O)[nH]c4c3)n2)cc1C(F)(F)F [Compound I-166, 4-(5-fluoro-4-(2-oxo-2,3-dihydrobenzo[d]oxazol-5-ylamino)pyrimidin-2-ylamino)-N-phenyl-2-(trifluoromethyl)benzamide formate salt] | < 0.5 µM
COc1ccc(Nc2ncc(F)c(Nc3ccc4oc(=O)[nH]c4c3)n2)cc1C(F)(F)F [Compound I-212, 5-fluoro-N2-(4-methoxy-3-trifluoromethyl)phenyl-N4-(2-oxo-2,3-dihydro-1,3-benzoxazol-5-yl)-2,4-pyrimidinediamine] | < 0.5 µM
